Reference: patent US7316990B2, “High-strength, low viscosity herbicidal formulations of glyphosate” (Dow AgroSciences LLC, priority 2003, dated 2008)

Tested on: Five broadleaf species (IPOHE, CHEAL, EPHHL, ABUTH and CASOB)
Assay: Greenhouse study of glyphosate salt solutions in mixture with a second herbicide (Colby's equation)
Type: in vivo
Conditions: for % Actual Control: 420 gae/ha glyphosate and/or 140 gae/ha second herbicide, 3 days after application, averaged over the 5 species; for Herbicide interaction with 2,4-D DMA and triclopyr TEA (actual versus expected control): Colby's equation
Procedure: In a further greenhouse study, the efficacy of a glyphosate DMA salt solution in mixture with DMA 4 (456 g/l 2,4-D acid equivalent in the form of the DMA salt) and Garlon 3A (360 g/l triclopyr acid equivalent in the form of the triethylamine [TEA] salt) respectively was compared with the efficacy of a glyphosate K salt solution in the same mixtures. The glyphosate salt solutions were prepared by diluting the glyphosate DMA salt concentrate and glyphosate K salt concentrate with the required amount of water to prepare solutions containing 480 g/l glyphosate acid equivalent each. Five broadleaf species (IPOHE, CHEAL, EPHHL, ABUTH and CASOB) were sprayed with the individual formulations as well as the mixtures listed in Table 6. The herbicide interactions were analyzed using Colby's equation. This equation for the expected mixture response is: Y1+2=Y1+Y2−(Y1Y2)100 where Y1+2 is the expected mixture response and y1 and y2 are the percent control values of the individual herbicides.

Compound	% Actual Control	Herbicide interaction with 2,4-D DMA and triclopyr TEA (actual versus expected control)
CNC.O=C(O)COc1ccc(Cl)cc1Cl [2,4-D DMA salt]	47.0%	–
CNC.O=C(O)CNCP(=O)(O)O [glyphosate DMA salt]	35.7%	no antagonism
O=C(O)CNCP(=O)([O-])O.[K+] [glyphosate K salt]	35.7%	antagonistic
CCN(CC)CC.O=C(O)COc1nc(Cl)c(Cl)cc1Cl [triclopyr TEA salt]	55.0%	–
